Assay [1] concerns the target T1, PYR1 (Arabidopsis thaliana, UniProt O49686).
T1 sequence (O49686 1-191): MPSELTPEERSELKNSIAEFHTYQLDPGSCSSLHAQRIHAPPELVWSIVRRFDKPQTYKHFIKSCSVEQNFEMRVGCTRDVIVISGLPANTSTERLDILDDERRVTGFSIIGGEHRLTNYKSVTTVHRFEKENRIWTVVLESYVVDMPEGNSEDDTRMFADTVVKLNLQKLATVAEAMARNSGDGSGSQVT
As to the kind of experiment: biochemical. As to conditions: 1 uM lebactin, 8 uM PYR1; read-out: F(GhitFluors)/Kd/μM. Details: Fluorescence competition displacing lebactin (1 uM) from PYR1 (8 uM); Kd from double-log titration fit. The source says: (§1) Validation of the Fluorescent Chemosensor‐Based Screening Platform In‐house Chemical Database Screening Assay To validate the practicality of GhitFluors platform for global high‐throughput identification of ABA receptor modulators, we used this platform to analyze a library comprising several hundreds‐amide compounds. First, we evaluated K d values of several hundreds amide‐compounds using fluorescence competition assays. […] Meanwhile, binding affinities of the six compounds to PYR1 were evaluated using ITC or BLI assays to validate the screening results. […] As depicted in Figure 4a, a significant decrease in fluorescence intensity was observed as the concentration of diopyridin increased, ranging from 30 to 350 µM. When the concentration of diopyridin reached 350 µM, fluorescence intensity was close to the threshold. […] In addition, we also tested the binding affinities of diopyridin with other representative PYLs, including dimer (PYL1, PYL2), and monomer (PYL4, PYL5, and PYL10‐PYL12) that had K d values ranging from 0.97 to 32.8 µM, and 1.6 to 243.7 µM, respectively (Figure S20, Supporting Information).

Assay [2] deals with T1, PYR1. As to the kind of experiment: biochemical. On the set-up: Isothermal titration calorimetry of compound binding to PYR1. As to conditions: read-out: ITC/Kd/μM. The method, then:
as §1, with “To” for “Validation of the Fluorescent Chemosensor‐Based Screening Platform In‐house Chemical Database Screening Assay To”

The target in assay [3] is T1, PYR1. Briefly: biochemical. Details: Bio-layer interferometry of compound binding to PYR1. As to conditions: read-out: BLI/Kd/μM. The procedure:
To validate the practicality of GhitFluors platform for global high‐throughput identification of ABA receptor modulators, we used this platform to analyze a library comprising several hundreds‐amide compounds. First, we evaluated K d values of several hundreds amide‐compounds using fluorescence competition assays. […] Meanwhile, binding affinities of the six compounds to PYR1 were evaluated using ITC or BLI assays to validate the screening results. […] As depicted in Figure 4a, a significant decrease in fluorescence intensity was observed as the concentration of diopyridin increased, ranging from 30 to 350 µM. When the concentration of diopyridin reached 350 µM, fluorescence intensity was close to the threshold. […] It should have a low fluorescence background, high fluorescence shift and stability, and appropriate binding affinity, as these determine the accuracy, feasibility and, the sensitivity of this platform, respectively. […] First, we evaluated the fluorescence background of all chemosensors by using 310–370 nm as excitation wavelength. […] In addition, the binding affinity of compound 1a (lebactin) for PYR1 was evaluated by bio‐layer interferometry (BLI). […]

The target in assay [4] is T2, PYR-HAB1 (PYR1 with HAB1) (Arabidopsis thaliana, UniProt O49686).
T2 construct: HAB1 construct not described in main text; with Protein phosphatase 2C 16
T2 sequence (O49686 1-191): T1 sequence (O49686 1-191)
T2 sequence (Q9CAJ0 1-511 partner): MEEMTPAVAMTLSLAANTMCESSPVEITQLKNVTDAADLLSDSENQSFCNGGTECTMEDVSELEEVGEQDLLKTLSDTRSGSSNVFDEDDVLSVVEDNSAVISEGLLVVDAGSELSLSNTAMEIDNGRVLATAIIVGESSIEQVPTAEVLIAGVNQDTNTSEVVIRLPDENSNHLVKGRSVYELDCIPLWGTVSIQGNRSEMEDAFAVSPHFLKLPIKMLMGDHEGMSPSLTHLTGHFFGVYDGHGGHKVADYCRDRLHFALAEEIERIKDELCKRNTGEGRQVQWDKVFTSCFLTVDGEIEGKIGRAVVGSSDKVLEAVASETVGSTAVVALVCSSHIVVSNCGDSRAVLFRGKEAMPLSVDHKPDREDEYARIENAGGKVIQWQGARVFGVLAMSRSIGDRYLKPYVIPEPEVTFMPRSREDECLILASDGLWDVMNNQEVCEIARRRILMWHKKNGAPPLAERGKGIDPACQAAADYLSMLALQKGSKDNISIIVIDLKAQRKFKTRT
Briefly: Ser/Thr phosphatase assay (Promega), HAB1 inhibition via PYR1. Format: biochemical.

SMILES strings stand for the structures. Like-named read-outs stand apart in the source and are kept apart here. Some results are limits rather than exact numbers.

In the case of `O=[N+]([O-])c1cc(Br)cc([N+](=O)[O-])c1NS(=O)(=O)c1ccccc1Cl` [470a, N-(4-bromo-2,6-dinitrophenyl)-2-chlorobenzenesulfonamide], the Kd came to 8.43 ± 0.75 µM on PYR1 [1] and 9.51 ± 2.19 µM on PYR1 [2]. For `O=[N+]([O-])c1cc(Br)cc([N+](=O)[O-])c1NS(=O)(=O)c1cccc(F)c1` [260a, N-(4-bromo-2,6-dinitrophenyl)-3-fluorobenzenesulfonamide] the same measures were 3.96 ± 0.4 µM and 7.59 ± 1.62 µM.

Turning to `COc1ccc(C(=O)Nc2cccc3c2C(=O)N(C2CCC(=O)NC2=O)C3=O)cc1OC` (centres unmarked) [173b, N-(2(2,6-dioxopiperidin-3-yl)-1,3-dioxoisoindolin-4-yl)-3,4-dimethoxybenzamide], the Kd was found to be 1.55 ± 0.11 µM on PYR1 [1] and 9.5 ± 0.75 µM on PYR1 [3].

In the case of `COc1ccc(C(=O)Nc2cccc3c2C(=O)N(C2CCC(=O)NC2=O)C3=O)cc1OC` (centres unmarked) [173b, diopyridin], the inhibition (usually the drop in the measured response relative to a control, in per cent) at 50 µM in assay [4] is above 80%. Regarding `CC1=CC(=O)CC(C)(C)[C@@]1(O)/C=C/C(C)=C\C(=O)O` [ABA], in assay [4], the inhibition at 25 µM is above 80%.

In the case of `Cc1ccccc1S(=O)(=O)Nc1c([N+](=O)[O-])cc(Br)cc1[N+](=O)[O-]` [368a, N-(4-bromo-2,6-dinitrophenyl)-2-methylbenzenesulfonamide], the figures for the Kd on PYR1 [1] and on PYR1 [2] were 4.73 ± 0.37 µM and 14.9 ± 3.29 µM, respectively.

Consider `O=[N+]([O-])c1cc(Br)cc([N+](=O)[O-])c1NS(=O)(=O)c1cccc(Cl)c1` [361a, N-(4-bromo-2,6-dinitrophenyl)-3-chlorobenzenesulfonamide], for which the Kd on PYR1 [1] was 8.25 ± 0.25 µM; on PYR1 [2] it was 7.06 ± 1.92 µM.

Regarding `CC(C)(C)c1ccc(S(=O)(=O)Nc2c([N+](=O)[O-])cc(Br)cc2[N+](=O)[O-])cc1` [145a, N-(4-bromo-2,6-dinitrophenyl)-4-(tert-butyl)benzenesulfonamide], the Kd was 37.8 ± 1.31 µM at PYR1 [1] and 171 ± 3.76 µM on PYR1 [2].

The values are drawn from article PMC12165062, “High‐Throughput Fluorescence Screening Enables Globally Consistent Identification of ABA Signaling Modulators” (Advanced Science, 2025).
